Test results from patent publication US10647713B2 (Nimbus Lakshmi, Inc., priority 2016, dated 2020).
pKd: −log10 of the molar value.

Each molecule was assayed against human TYK2 (JH2domain-pseudokinase) (Homo sapiens (Human), UniProt P29597) (assay: TYK2 JH2 Domain Binding Assay (KINOMEscan, DiscoveRx)). Conditions: 11-point dilution, duplicate.
How it was run: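 TYK2 JH2 (G556–D888)–NFkB DBD fusion, DNA-tagged, from HEK293 extracts (<0.1 nM) competed against immobilised biotinylated ligand for 1 h at room temperature, 0.9% DMSO. Bead-retained kinase quantified by qPCR; Kd from 11-point 3-fold series (top 30,000 nM, duplicate), Hill fit with slope −1.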

Sequence of human TYK2 (JH2domain-pseudokinase) (P29597 556-888): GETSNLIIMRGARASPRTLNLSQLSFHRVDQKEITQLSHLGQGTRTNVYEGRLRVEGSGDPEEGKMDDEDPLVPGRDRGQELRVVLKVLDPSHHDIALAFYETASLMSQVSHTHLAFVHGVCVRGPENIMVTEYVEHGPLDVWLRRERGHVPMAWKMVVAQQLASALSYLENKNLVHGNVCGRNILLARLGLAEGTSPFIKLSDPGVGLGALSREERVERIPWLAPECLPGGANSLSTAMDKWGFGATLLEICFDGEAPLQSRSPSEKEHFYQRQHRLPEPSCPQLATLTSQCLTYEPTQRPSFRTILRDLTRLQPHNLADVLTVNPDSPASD

Structure (SMILES)	pKd
COc1c(Nc2cc(Nc3cccc(C(F)(F)F)n3)nc3[nH]c(C)nc23)cccc1-c1ncnn1C [I-627, N7-(2-methoxy-3-(1-methyl-1H-1,2,4-triazol-5-yl)phenyl)-2-methyl-N5-(6-(trifluoromethyl)pyridin-2-yl)-3H-imidazo[4,5-b]pyridine-5,7-diamine]	8.00 to 9.00
COc1c(Nc2cc(Nc3ccc4c(n3)C(F)(F)CC4)nc3[nH]c(C)nc23)cccc1-c1ncnn1C [I-628, N5-(7,7-difluoro-6,7-dihydro-5H-cyclopenta[b]pyridin-2-yl)-N7-(2-methoxy-3-(1-methyl-1H-1,2,4-triazol-5-yl)phenyl)-2-methyl-3H-imidazo[4,5-b]pyridine-5,7-diamine]	9.00 to 9.30
COc1c(Nc2cc(Nc3ccc4c(n3)C(F)(F)CC4)nc3[nH]c(C)nc23)cccc1-c1cnn(C)n1 [I-629, N5-(7,7-difluoro-6,7-dihydro-5H-cyclopenta[b]pyridin-2-yl)-N7-(2-methoxy-3-(2-methyl-2H-1,2,3-triazol-4-yl)phenyl)-2-methyl-3H-imidazo[4,5-b]pyridine-5,7-diamine]	9.00 to 9.30
C#Cc1cccc(Nc2cc(Nc3ccc(F)cc3S(C)(=O)=O)c3nc(C)[nH]c3n2)n1 [I-630, N5-(6-ethynylpyridin-2-yl)-N7-(4-fluoro-2-(methylsulfonyl)phenyl)-2-methyl-3H-imidazo[4,5-b]pyridine-5,7-diamine]	> 10.00
CN=S(C)(=O)c1cc(-c2cnn(C)c2C)ccc1Nc1cc(NC(=O)C2CC2)nc2[nH]c(C(F)F)nc12 (stereo not drawn) [I-631, N-(2-(difluoromethyl)-7-((4-(1,5-dimethyl-1H-pyrazol-4-yl)-2-(N,S-dimethylsulfonimidoyl)phenyl)amino)-3H-imidazo[4,5-b]pyridin-5-yl)cyclopropanecarboxamide]	> 10.00
CN=S(C)(=O)c1cc(-c2ccn(C)n2)ccc1Nc1cc(NC(=O)C2CC2)nc2[nH]c(C(F)F)nc12 (stereo not drawn) [I-632]	9.30 to 10.00
CS(=O)(=O)c1cc(F)ccc1Nc1cc(Nc2cc3c(nn2)CCC3)nc2[nH]c(C(F)F)nc12 [I-633]	9.30 to 10.00
CN=S(C)(=O)c1cc(-c2nc(COC)c(C)s2)ccc1Nc1cc(NC(=O)C2CC2)nc2[nH]c(C(F)F)nc12 (stereo not drawn) [I-634]	9.30 to 10.00
COCc1ccc(Nc2cc(Nc3ccc(F)cc3S(C)(=O)=O)c3nc(C(F)F)[nH]c3n2)nn1 [I-635]	9.30 to 10.00
COCc1ccc(Nc2cc(Nc3ccc(F)cc3S(C)(=O)=O)c3nc(C)[nH]c3n2)nn1 [I-636]	9.30 to 10.00
CN=[S@@](C)(=O)c1cc(-c2cnn(C)c2C)ccc1Nc1cc(NC(=O)C2CC2)nc2[nH]c(C(F)F)nc12 [I-637]	> 10.00
CN=[S@](C)(=O)c1cc(-c2cnn(C)c2C)ccc1Nc1cc(NC(=O)C2CC2)nc2[nH]c(C(F)F)nc12 [I-638]	9.30 to 10.00
Cc1nc2c(Nc3ccc(F)cc3S(C)(=O)=O)cc(Nc3cc4c(nn3)CCC4)nc2[nH]1 [I-639]	> 10.00
CN=S(C)(=O)c1cc(-c2ccn(C)n2)ccc1Nc1cc(NC(=O)C2CC2)nc2[nH]c(C)nc12 (stereo not drawn) [I-640]	9.30 to 10.00
CN=S(C)(=O)c1cc(-c2nn(C)cc2C)ccc1Nc1cc(NC(=O)C2CC2)nc2[nH]c(C(F)F)nc12 (stereo not drawn) [I-641]	> 10.00
Cc1cc(Nc2cc(Nc3ccc(C4CCC(C)(C)CO4)cc3S(C)(=O)=O)c3nc(C)[nH]c3n2)nc(C)n1 (stereo not drawn) [I-642]	> 10.00
CS(=O)(=O)c1cc(F)ccc1Nc1cc(Nc2ccc3c(n2)CCOC3)nc2[nH]c(C(F)F)nc12 [I-643]	9.30 to 10.00
Cc1nc2c(Nc3ccc(F)cc3S(C)(=O)=O)cc(Nc3ccc4c(n3)CCOC4)nc2[nH]1 [I-644]	9.30 to 10.00
COc1c(Nc2cc(Nc3ccc4c(n3)CCOC4)nc3[nH]c(C(F)F)nc23)cccc1-c1ncnn1C [I-645]	8.00 to 9.00
COc1c(Nc2cc(Nc3ccc4c(n3)CCOC4)nc3[nH]c(C(F)F)nc23)cccc1-c1cnn(C)n1 [I-646]	9.00 to 9.30
COc1c(Nc2cc(Nc3cc4c(nn3)CCC4)nc3[nH]c(C(F)F)nc23)cccc1-c1ncnn1C [I-647]	9.00 to 9.30
COc1c(Nc2cc(Nc3cc4c(nn3)CCC4)nc3[nH]c(C(F)F)nc23)cccc1-c1cnn(C)n1 [I-648]	9.30 to 10.00
CN=[S@@](C)(=O)c1cc(-c2nc(COC)c(C)s2)ccc1Nc1cc(NC(=O)C2CC2)nc2[nH]c(C(F)F)nc12 [I-649]	8.00 to 9.00
CN=[S@](C)(=O)c1cc(-c2nc(COC)c(C)s2)ccc1Nc1cc(NC(=O)C2CC2)nc2[nH]c(C(F)F)nc12 [I-650]	9.30 to 10.00
